Assay results reported in patent publication US10633407B2, “14-membered ketolides and methods of their preparation and use” (President and Fellows of Harvard College, priority 2014, dated 2020).
Converted amounts (≈) assume the structure as drawn.

Columns and labels:
Experiment in all cases: CLSI broth dilution MIC determination
Assay type in all cases: cell-based
[1] = test system: S. pyogenes Macrolide-resistant; conditions: Streptococcus pyogenes, S. pyogenes Macrolide-resistant (MP-625 UNT-014); read-out: MIC
[2] = test system: K. pneumoniae KPC-2; conditions: Klebsiella pneumoniae, KPC2, read-out: MIC
[3] = test system: A. baumannii IMP-4; conditions: Acinetobacter baumannii, IMP4, read-out: MIC
[4] = test system: E. faecalis Vancomycin-resistant; conditions: Enterococcus faecalis, E. faecalis Vancomycin-resistant (UNT-039); read-out: MIC
[5] = test system: A. baumannii imipenem-resistant; conditions: Acinetobacter baumannii, read-out: MIC
[6] = test system: H. influenzae Erythro >4, Azithro 1; conditions: Haemophilus influenzae; read-out: MIC
Text: MIC data was collected for the novel macrolides that this platform has produced against over 21 unique strains of B. subtilis, E. coli, S. aureus, S. pneumoniae, and H. influenzae, including several multidrug-resistant strains, with a special focus on macrolide resistant mechanisms (vide supra). […] CLSI standard procedures for broth dilution MIC determination were used. […] These genotypes can be constitutive or inducible.

[7] = test system: E. faecalis ATCC 29212; conditions: Enterococcus faecalis, ATCC29212, E. faecalis ATCC 29212 (MP-24); read-out: MIC
[8] = test system: E. coli ATCC 25922; conditions: Escherichia coli, ATCC25922, E. coli ATCC 25922 (MP-4); read-out: MIC
Summary of the method: (§1)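 MICs measured following CLSI broth dilution methodology. The strains tested include macrolide-resistant and multidrug-resistant isolates whose resistance genotypes can be constitutive or inducible.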

[9] = test system: S. pneumoniae ATCC 49619; conditions: Streptococcus pneumoniae, ATCC49619, S. pneumoniae ATCC 49619 (MP-21); read-out: MIC
Summary of the method: as §1

[10] = test system: E. coli TEM-1; conditions: Escherichia coli, TEM1
Summary of the method: as §1

[11] = test system: S. aureus MRSA: USA300; conditions: Staphylococcus aureus; S. aureus MRSA: USA300 (MP-549, msr(a)); read-out: MIC
Summary of the method: as §1

[12] = test system: S. pneumoniae erm B + tet(M,O) genotype; conditions: Streptococcus pneumoniae
Summary of the method: as §1

[13] = test system: S. aureus USA600, GISA; conditions: Staphylococcus aureus; S. aureus USA600, GISA (MP-619 UNT-120); read-out: MIC
Summary of the method: as §1

[14] = test system: S. aureus ATCC 29213; conditions: Staphylococcus aureus, ATCC29213; S. aureus ATCC 29213 (MP-12); read-out: MIC
Summary of the method: as §1

[15] = test system: E. coli NDM-1; conditions: Escherichia coli, NDM1, read-out: MIC
Summary of the method: as §1

[16] = test system: S. pneumoniae mef A genotype (second strain so labelled); conditions: Streptococcus pneumoniae, second strain (MP-627 UNT-039), read-out: MIC
Summary of the method: as §1

[17] = test system: S. aureus MRSA: USA100; conditions: Staphylococcus aureus; S. aureus MRSA: USA100 (MP-618 UNT-096); read-out: MIC
Summary of the method: as §1

[18] = test system: S. pneumoniae erm B + mef A genotype; conditions: Streptococcus pneumoniae
Summary of the method: as §1

[19] = test system: S. aureus erm A genotype; conditions: Staphylococcus aureus; S. aureus erm A genotype (MP-620 UNT-146); read-out: MIC
Summary of the method: as §1

[20] = test system: K. pneumoniae TEM-10; conditions: Klebsiella pneumoniae, TEM10, read-out: MIC
[21] = test system: S. pneumoniae mef A genotype (first strain so labelled); conditions: Streptococcus pneumoniae, first strain (MP-626 UNT-038)
Summary of the method: as §1

[22] = test system: H. influenzae ATCC49247; conditions: Haemophilus influenzae, read-out: MIC
Summary of the method: as §1

[23] = test system: E. coli CTX-M-14; conditions: Escherichia coli, CTXM14, read-out: MIC
Summary of the method: as §1

[24] = test system: K. pneumoniae ATCC 10031; conditions: Klebsiella pneumoniae, ATCC10031, K. pneumoniae ATCC 10031 (MP-14); read-out: MIC
[25] = test system: P. aeruginosa HPA101-1477; conditions: Pseudomonas aeruginosa, HPA1011477, read-out: MIC
[26] = test system: S. pyogenes ATCC 19615; conditions: Streptococcus pyogenes, ATCC19615, S. pyogenes ATCC 19615 (MP-19); read-out: MIC
[27] = test system: K. pneumoniae SHV-12; conditions: Klebsiella pneumoniae, SHV12, read-out: MIC
[28] = test system: A. baumannii chromosomal class C; conditions: Acinetobacter baumannii, read-out: MIC
[29] = test system: A. baumannii ATCC 19606; conditions: Acinetobacter baumannii, ATCC19606; A. baumannii ATCC 19606 (MP-15); read-out: MIC
[30] = test system: P. aeruginosa ATCC 27853; conditions: Pseudomonas aeruginosa, ATCC27853; P. aeruginosa ATCC 27853 (MP-3); read-out: MIC

Structure (SMILES)	MIC [1]	MIC [2]	MIC [3]	MIC [4]	MIC [5]	MIC [6]	MIC [7]	MIC [8]	MIC [9]	MIC [10]	MIC [11]	MIC [12]	MIC [13]	MIC [14]	MIC [15]	MIC [16]	MIC [17]	MIC [18]	MIC [19]	MIC [20]	also measured
CC[C@H]1OC(=O)[C@H](C)C(=O)[C@H](C)[C@@H](O[C@@H]2OC(C)CC(N(C)C)C2O)[C@](C)(OC)C[C@@H](C)C(=O)C[C@H]2N(CCCCn3cc(-c4cccc(N)c4)nn3)C(=O)O[C@]12C (stereo partly drawn) [FSM-21535]	0.5 µg/mL (≈ 0.615 µM)	> 32 µg/mL	> 32 µg/mL	> 32 µg/mL	> 32 µg/mL	8 µg/mL (≈ 9.84 µM)	≤ 0.0312 µg/mL	> 32 µg/mL	≤ 0.0312 µg/mL	> 32 µg/mL	32 µg/mL (≈ 39.4 µM)	≤ 0.0312 µg/mL	> 32 µg/mL	16 µg/mL (≈ 19.7 µM)	> 32 µg/mL	0.5 µg/mL (≈ 0.615 µM)	> 32 µg/mL	8 µg/mL (≈ 9.84 µM)	> 32 µg/mL	> 32 µg/mL	MIC [21]: 0.0625 µg/mL (≈ 0.0769 µM); MIC [22]: 4 µg/mL (≈ 4.92 µM); MIC [23]: > 32 µg/mL; MIC [24]: 4 µg/mL (≈ 4.92 µM); MIC [25]: > 32 µg/mL; MIC [26]: ≤ 0.0312 µg/mL; MIC [27]: > 32 µg/mL; MIC [28]: > 32 µg/mL; MIC [29]: > 32 µg/mL; MIC [30]: > 32 µg/mL
CC[C@H]1OC(=O)[C@@](C)(F)C(=O)[C@H](C)[C@@H](O[C@@H]2OC(C)CC(N(C)C)C2O)[C@](C)(OC)C[C@@H](C)C(=O)C[C@H]2N(CCCCn3cc(-c4cccc(N)c4)nn3)C(=O)O[C@]12C (stereo partly drawn) [FSM-21598]	0.25 µg/mL (≈ 0.301 µM)	> 32 µg/mL	> 32 µg/mL	> 32 µg/mL	> 32 µg/mL	8 µg/mL (≈ 9.63 µM)	≤ 0.0312 µg/mL	> 32 µg/mL	≤ 0.0312 µg/mL	> 32 µg/mL	32 µg/mL (≈ 38.5 µM)	≤ 0.0312 µg/mL	> 32 µg/mL	32 µg/mL (≈ 38.5 µM)	> 32 µg/mL	0.25 µg/mL (≈ 0.301 µM)	> 32 µg/mL	8 µg/mL (≈ 9.63 µM)	> 32 µg/mL	> 32 µg/mL	MIC [21]: ≤ 0.0312 µg/mL; MIC [22]: 4 µg/mL (≈ 4.81 µM); MIC [23]: > 32 µg/mL; MIC [24]: 8 µg/mL (≈ 9.63 µM); MIC [25]: > 32 µg/mL; MIC [26]: ≤ 0.0312 µg/mL; MIC [27]: > 32 µg/mL; MIC [28]: 32 µg/mL (≈ 38.5 µM); MIC [29]: > 32 µg/mL; MIC [30]: > 32 µg/mL
